# Literature values, collected in patent publication US20120016021A1, “METHODS OF TREATING FRAGILE X SYNDROME, DOWN'S SYNDROME, AUTISM AND RELATED DISORDERS” (XENOPORT, INC., priority 2010, published 2012).
# Legend:
# [1] = animal models
# Fmr1 KO mice = conditions: low doses (1 mg/kg), audiogenically induced seizures
# [2] = administered orally
SMILES,social isolation and communication (autistic children),irritability subscale of the Aberrant Behavior Checklist and Clinical Global Impressions-Improvement (autistic children; placebo-controlled),absorption following administration into the colon [1],"locomotor activity (Fmr1^/− animals; baclofen at 3 mg/kg, Fmr1^/− animals)",dose needed for comparable locomotor suppression in animals reared by Fmr1^+/+ mothers versus Fmr1^/− animals (Fmr1^/− animals; relative to 3 mg/kg) [fold],seizure incidence (Fmr1 KO mice),elimination half-life [2] [h]
Cc1nc2n(c(=O)c1CCN1CCC(c3noc4cc(F)ccc34)CC1)CCCC2 [risperidone],not improved,significant improvement,–,–,–,–,–
"NCC(CC(=O)O)c1ccc(Cl)cc1 (racemic) [baclofen, 4-amino-3-(4-chlorophenyl)butanoic acid]",–,–,poorly absorbed,inhibits locomotor activity,2,significantly inhibits seizure incidence,3 to 4
